# In patent US20260132140A1, “IMIDAZOLYL-AMINO-PYRAZINE-CARBONITRILS AS CHK-1 INHIBITORS” (BenevolentAI Bio Limited, priority 2022, published 2026):
# What was measured:
# RSK2 = target: T1, RSK2 (Homo sapiens, UniProt P51812); assay: RSK1-4 kinase assay (Eurofins KinaseProfiler, radiometric): RSK2; assay type: biochemical; conditions: approximately ATP Km
# T1 construct: purchased Eurofins (KinaseProfiler service)
# From the text: (§1) The radiometric kinase activity assays were run at approximately the ATP Km for each kinase and the IC50 data is shown in Table 24.
# [1] = system: pChk1(Ser296) in SW620 cells; assay: pChk1(Ser296) sandwich ELISA, cell-based on-target kinase activity; conditions: Homo sapiens, SW-620, neocarzinostatin 7.5 μM, 2 hours, read-out: SW620 pIC50 (converted)
# Method: ELISA assays were performed as per the manufacturer's protocol. […] Selected compounds of the invention were tested as a 8-point concentration response up to a maximum concentration of either 1 μM, 3 μM or 10 μM. The percent (%) effect i.e. inhibition at each concentration of compound was calculated based on, and relative to, the amount of inhibition produced in the vehicle control and inhibited control wells contained within each plate.
# RSK3 = target: T2, RSK3 (Homo sapiens, UniProt Q15349); assay: RSK1-4 kinase assay (Eurofins KinaseProfiler, radiometric): RSK3; assay type: biochemical; conditions: approximately ATP Km
# T2 construct: purchased Eurofins (KinaseProfiler service)
# From the text: as §1
# RSK1 = target: T3, RSK1 (Homo sapiens, UniProt Q15418); assay: RSK1-4 kinase assay (Eurofins KinaseProfiler, radiometric): RSK1; assay type: biochemical; conditions: approximately ATP Km
# T3 construct: purchased Eurofins (KinaseProfiler service)
# From the text: as §1
# [2] = Determination of CNS penetration in vivo, unbound brain to plasma ratio (Kpuu); conditions: male, Sprague Dawley, rat, iv, 1 mg/kg
# GBM LN18 cells = assay: In vitro cell viability assay (Cell Titre Glo, 72 hours); assay type: cell-based; conditions: Homo sapiens, LN-18, read-out: LN18 pIC50 (converted)
# In short: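 LN18 glioblastoma cells were exposed to compound for 72 h in a 10-point concentration series up to 10 μM. Viability was read as cellular ATP by CellTiter-Glo luminescence, and % inhibition was calculated against the vehicle and inhibited control wells on each plate.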
# RSK4 = target: T4, RSK4 (Homo sapiens, UniProt Q9UK32); assay: RSK1-4 kinase assay (Eurofins KinaseProfiler, radiometric): RSK4; assay type: biochemical; conditions: approximately ATP Km
# T4 construct: purchased Eurofins (KinaseProfiler service)
# From the text: as §1
# in vitro = conditions: dog, MDCK, pH 7.4
# human Chk2 kinase = human Chk2 kinase (Homo sapiens, UniProt O96017); assay: biochemical
# [3] = target: P-glycoprotein (P-gp, MDR1) (Homo sapiens, UniProt P08183); assay: in vitro; conditions: dog, MDCK-MDR1, pH 7.4
# human Chk1 kinase = target: T5, human Chk1 kinase (Homo sapiens, UniProt O14757); assay: biochemical
# T5 sequence (O14757 1-476): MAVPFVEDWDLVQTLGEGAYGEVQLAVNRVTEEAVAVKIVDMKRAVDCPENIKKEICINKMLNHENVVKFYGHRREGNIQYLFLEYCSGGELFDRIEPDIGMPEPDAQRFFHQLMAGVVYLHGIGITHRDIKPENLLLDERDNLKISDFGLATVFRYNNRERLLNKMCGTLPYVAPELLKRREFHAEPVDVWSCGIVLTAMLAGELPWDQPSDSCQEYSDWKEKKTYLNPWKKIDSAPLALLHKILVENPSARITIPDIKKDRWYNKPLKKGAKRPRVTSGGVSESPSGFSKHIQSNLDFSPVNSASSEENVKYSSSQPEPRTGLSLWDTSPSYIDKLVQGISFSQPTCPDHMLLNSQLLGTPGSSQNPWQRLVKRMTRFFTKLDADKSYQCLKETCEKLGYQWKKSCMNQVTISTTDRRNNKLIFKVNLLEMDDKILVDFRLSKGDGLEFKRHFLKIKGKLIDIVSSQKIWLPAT
# BCRP = target: T6, BCRP (Homo sapiens, UniProt Q9UNQ0); assay: in vitro; conditions: dog, pH 7.4
# T6 sequence (Q9UNQ0 1-655): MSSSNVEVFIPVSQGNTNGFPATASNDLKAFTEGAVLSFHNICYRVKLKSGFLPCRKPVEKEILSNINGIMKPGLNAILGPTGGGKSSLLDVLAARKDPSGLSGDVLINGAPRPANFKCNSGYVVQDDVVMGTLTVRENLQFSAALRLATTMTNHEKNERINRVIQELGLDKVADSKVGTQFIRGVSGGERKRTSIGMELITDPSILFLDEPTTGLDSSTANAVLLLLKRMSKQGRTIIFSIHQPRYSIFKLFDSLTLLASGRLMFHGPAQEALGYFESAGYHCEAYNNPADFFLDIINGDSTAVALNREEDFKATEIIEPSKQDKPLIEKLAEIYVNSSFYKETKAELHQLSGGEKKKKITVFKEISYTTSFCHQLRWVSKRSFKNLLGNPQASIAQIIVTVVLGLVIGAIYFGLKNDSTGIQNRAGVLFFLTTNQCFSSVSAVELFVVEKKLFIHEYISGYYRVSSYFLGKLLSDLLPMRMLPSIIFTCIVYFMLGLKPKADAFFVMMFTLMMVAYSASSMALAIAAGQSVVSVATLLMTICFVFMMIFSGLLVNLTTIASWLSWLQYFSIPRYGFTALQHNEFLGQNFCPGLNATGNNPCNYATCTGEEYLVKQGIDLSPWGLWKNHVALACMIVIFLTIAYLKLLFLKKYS
# [4] = system: 373 human wild-type kinases; assay: Kinome selectivity, Eurofins KinaseProfiler kinase screen; assay type: biochemical; conditions: panel of 373 human wild-type kinases, approximately ATP Km, top concentration 10 μM
# From the text: The radiometric kinase activity assays were run at approximately the ATP Km for each kinase.
# T1 sequence (P51812 whole entry): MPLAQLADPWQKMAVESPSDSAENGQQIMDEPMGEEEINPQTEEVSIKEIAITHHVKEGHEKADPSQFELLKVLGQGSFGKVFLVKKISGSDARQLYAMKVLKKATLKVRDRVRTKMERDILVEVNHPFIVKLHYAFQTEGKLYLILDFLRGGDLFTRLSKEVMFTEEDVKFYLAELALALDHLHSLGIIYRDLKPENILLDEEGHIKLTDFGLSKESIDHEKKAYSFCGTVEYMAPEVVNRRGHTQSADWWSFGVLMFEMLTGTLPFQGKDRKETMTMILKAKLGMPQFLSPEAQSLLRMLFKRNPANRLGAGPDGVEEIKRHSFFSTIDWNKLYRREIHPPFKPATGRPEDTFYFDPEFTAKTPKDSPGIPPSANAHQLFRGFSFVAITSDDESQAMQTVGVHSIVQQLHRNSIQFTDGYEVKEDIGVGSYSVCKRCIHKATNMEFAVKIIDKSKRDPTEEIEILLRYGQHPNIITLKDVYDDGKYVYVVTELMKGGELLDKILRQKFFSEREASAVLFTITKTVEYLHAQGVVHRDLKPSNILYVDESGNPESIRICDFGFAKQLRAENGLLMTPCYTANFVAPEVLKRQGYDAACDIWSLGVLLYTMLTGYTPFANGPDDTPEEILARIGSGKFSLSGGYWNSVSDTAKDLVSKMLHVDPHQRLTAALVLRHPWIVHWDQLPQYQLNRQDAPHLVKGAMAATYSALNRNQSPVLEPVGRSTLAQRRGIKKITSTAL
# T2 sequence (Q15349 whole entry): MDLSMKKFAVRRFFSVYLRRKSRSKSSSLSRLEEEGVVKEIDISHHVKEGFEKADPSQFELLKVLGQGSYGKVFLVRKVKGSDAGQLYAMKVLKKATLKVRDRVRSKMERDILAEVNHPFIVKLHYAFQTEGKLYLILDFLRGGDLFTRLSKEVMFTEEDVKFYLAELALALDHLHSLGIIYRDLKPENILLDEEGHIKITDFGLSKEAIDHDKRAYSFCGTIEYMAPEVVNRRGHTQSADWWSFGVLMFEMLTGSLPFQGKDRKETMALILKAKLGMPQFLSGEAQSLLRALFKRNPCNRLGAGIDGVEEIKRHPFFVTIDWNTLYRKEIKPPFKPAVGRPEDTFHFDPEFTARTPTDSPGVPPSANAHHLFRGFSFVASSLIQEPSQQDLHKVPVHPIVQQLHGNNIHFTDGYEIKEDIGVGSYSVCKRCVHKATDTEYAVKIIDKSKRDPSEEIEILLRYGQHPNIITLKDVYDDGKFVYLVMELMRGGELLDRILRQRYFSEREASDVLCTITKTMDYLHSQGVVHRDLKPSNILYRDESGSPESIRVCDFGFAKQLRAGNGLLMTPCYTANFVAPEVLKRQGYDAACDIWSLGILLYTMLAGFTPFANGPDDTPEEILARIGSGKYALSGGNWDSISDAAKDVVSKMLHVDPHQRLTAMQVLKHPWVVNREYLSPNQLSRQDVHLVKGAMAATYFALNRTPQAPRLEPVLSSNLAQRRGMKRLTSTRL
# T3 sequence (Q15418 whole entry): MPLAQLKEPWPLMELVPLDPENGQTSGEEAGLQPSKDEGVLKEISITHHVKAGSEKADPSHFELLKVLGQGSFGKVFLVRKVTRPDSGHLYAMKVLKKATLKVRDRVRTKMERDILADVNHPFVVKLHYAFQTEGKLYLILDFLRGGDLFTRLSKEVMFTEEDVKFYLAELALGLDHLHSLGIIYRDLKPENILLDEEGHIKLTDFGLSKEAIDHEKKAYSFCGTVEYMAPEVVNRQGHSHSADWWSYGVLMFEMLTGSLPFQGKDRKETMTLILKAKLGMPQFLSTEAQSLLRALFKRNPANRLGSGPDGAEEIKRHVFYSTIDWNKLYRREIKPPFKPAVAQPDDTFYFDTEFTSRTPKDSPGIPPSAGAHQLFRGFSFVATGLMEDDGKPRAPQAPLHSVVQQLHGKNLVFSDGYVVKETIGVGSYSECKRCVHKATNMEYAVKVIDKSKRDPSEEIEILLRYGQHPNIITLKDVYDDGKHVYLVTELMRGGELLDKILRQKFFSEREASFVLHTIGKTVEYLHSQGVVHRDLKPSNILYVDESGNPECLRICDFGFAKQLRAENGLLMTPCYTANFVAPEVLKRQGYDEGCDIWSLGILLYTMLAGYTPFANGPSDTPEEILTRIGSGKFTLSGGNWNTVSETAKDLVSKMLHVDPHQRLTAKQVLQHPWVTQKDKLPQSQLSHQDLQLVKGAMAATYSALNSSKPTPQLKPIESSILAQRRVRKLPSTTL
# T4 sequence (Q9UK32 whole entry): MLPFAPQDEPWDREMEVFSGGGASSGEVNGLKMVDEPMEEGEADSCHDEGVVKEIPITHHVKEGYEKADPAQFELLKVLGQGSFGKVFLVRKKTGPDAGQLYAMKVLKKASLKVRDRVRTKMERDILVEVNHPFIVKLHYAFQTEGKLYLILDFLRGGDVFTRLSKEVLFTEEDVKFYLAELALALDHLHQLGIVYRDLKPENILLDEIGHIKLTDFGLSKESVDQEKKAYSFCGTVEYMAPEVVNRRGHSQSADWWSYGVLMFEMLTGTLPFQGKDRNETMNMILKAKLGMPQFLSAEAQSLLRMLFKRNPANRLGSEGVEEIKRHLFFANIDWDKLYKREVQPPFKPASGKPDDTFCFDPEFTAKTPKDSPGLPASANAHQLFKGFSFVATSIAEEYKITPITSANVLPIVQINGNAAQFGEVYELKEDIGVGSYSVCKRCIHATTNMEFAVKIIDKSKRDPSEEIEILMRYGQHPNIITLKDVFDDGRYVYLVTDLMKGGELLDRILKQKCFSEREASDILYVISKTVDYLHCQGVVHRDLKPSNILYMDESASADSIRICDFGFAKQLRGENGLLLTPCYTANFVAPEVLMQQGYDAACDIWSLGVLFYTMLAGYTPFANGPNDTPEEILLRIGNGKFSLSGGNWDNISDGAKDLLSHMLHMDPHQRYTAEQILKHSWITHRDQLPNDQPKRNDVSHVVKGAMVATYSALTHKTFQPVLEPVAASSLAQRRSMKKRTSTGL
# Sequence of human Chk2 kinase (O96017 whole entry): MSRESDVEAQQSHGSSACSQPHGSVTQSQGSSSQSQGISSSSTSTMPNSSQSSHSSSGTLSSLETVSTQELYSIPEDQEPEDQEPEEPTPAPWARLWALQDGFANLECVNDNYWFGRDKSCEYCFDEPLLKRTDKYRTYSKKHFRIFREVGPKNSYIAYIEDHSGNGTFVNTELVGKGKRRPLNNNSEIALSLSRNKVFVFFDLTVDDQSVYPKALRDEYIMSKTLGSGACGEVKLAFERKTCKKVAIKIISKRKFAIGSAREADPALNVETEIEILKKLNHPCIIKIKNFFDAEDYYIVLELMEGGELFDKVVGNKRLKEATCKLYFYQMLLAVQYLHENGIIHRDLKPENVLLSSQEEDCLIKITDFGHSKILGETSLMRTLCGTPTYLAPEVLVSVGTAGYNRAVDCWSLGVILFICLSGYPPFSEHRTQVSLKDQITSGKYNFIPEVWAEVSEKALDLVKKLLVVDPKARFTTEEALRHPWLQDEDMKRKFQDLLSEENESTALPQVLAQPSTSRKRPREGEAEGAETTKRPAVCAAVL
# Sequence of P-glycoprotein (P-gp, MDR1) (P08183 whole entry): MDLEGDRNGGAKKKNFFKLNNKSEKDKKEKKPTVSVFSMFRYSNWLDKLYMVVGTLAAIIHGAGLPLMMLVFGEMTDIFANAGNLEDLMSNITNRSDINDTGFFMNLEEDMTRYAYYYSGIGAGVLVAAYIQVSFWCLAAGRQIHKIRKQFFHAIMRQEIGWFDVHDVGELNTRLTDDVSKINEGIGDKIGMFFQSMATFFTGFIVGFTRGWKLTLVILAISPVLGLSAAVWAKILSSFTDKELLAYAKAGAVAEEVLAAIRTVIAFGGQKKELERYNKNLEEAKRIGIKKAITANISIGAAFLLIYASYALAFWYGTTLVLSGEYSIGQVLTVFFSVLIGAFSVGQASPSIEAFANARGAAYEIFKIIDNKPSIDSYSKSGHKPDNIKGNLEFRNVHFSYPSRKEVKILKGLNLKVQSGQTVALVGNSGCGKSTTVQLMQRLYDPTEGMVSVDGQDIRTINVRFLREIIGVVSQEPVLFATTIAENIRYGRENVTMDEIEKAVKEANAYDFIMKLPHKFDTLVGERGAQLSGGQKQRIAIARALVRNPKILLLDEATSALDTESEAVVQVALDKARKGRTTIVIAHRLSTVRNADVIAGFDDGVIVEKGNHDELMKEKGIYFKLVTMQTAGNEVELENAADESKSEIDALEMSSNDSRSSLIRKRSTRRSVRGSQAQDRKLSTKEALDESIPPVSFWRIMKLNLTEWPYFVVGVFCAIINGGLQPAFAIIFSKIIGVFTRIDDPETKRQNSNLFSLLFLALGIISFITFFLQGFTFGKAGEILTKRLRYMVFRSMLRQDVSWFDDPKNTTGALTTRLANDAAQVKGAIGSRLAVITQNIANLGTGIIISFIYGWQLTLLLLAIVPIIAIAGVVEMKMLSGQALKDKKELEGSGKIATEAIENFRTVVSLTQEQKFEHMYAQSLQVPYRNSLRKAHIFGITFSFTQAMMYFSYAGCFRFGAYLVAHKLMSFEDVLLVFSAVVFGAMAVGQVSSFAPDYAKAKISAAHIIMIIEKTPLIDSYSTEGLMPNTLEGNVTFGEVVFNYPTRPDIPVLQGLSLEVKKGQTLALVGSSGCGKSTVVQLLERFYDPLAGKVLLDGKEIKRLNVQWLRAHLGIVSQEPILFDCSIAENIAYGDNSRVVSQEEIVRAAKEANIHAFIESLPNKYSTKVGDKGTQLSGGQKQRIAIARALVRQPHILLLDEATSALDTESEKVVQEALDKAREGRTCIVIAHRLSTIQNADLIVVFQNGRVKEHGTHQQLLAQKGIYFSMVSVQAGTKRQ
Compound,"Papp A→B at 60 min, 1 μM (in vitro)",IC50 (human Chk2 kinase),"efflux ratio at 60 min, 1 μM [3]",IC50 (human Chk1 kinase),"efflux ratio at 60 min, 1 μM (BCRP)",IC50 (RSK2),IC50 [1],IC50 (RSK3),IC50 (RSK1),Kp uu at 0.25 h [2],IC50 (GBM LN18 cells),IC50 (RSK4),Number of 372 kinases inhibited relative to Chk1 IC50 Within 10-fold [4],Number of 372 kinases inhibited relative to Chk1 IC50 Within 100-fold [4]
"C[C@@H]1C[C@@H](N2CCC2)CN1c1ccc(-n2cnc(Nc3cnc(C#N)cn3)c2)cc1 [Example 98, 5-((1-(4-((2R,4R)-4-(Azetidin-1-yl)-2-methylpyrrolidin-1-yl)phenyl)-1H-imidazol-4-yl)amino)pyrazine-2-carbonitrile]",–,–,–,–,–,786 nM,< 1000 nM,651 nM,3550 nM,0.8,< 1000 nM,2470 nM,–,–
"CN(C)[C@@H]1CCN(c2ccc(-n3cnc(Nc4cnc(C#N)cn4)c3)nc2)C1 [Example 50, (R)-5-((1-(5-(3-(Dimethylamino)pyrrolidin-1-yl)pyridin-2-yl)-1H-imidazol-4-yl)amino)pyrazine-2-carbonitrile]",–,–,–,–,–,6670 nM,< 1000 nM,1020 nM,4470 nM,0.5,< 1000 nM,3140 nM,–,–
"CN1CCN(c2ccc(-n3cnc(Nc4cnc(C#N)cn4)c3)cc2)CC1 [Example 143, 5-((1-(4-(4-Methylpiperazin-1-yl)phenyl)-1H-imidazol-4-yl)amino)pyrazine-2-carbonitrile]",–,10000 to 100000 nM,–,10 to 31.6 nM,–,3040 nM,–,2070 nM,9450 nM,0.4,–,> 10000 nM,3,10

# Second part, led by results:
"Papp A→B at 60 min, 1 μM (in vitro)",IC50 (human Chk2 kinase),"efflux ratio at 60 min, 1 μM [3]",IC50 (human Chk1 kinase),"efflux ratio at 60 min, 1 μM (BCRP)",Compound,IC50 (RSK2),IC50 [1],IC50 (RSK3),IC50 (RSK1),Kp uu at 0.25 h [2],IC50 (GBM LN18 cells),IC50 (RSK4),Number of 372 kinases inhibited relative to Chk1 IC50 Within 10-fold [4],Number of 372 kinases inhibited relative to Chk1 IC50 Within 100-fold [4]
43 ×10⁻⁶ cm/s,> 100000 nM,0.9,100 to 316 nM,1.1,"N#Cc1cnc(Nc2cn(-c3ccc(N4CCN(CCC(F)(F)F)CC4)cc3)cn2)cn1 [Example 184, 5-((1-(4-(4-(3,3,3-Trifluoropropyl)piperazin-1-yl)phenyl)-1H-imidazol-4-yl)amino)pyrazine-2-carbonitrile]",–,–,–,–,–,–,–,–,–
84 ×10⁻⁶ cm/s,10000 to 100000 nM,0.7,31.6 to 100 nM,1.4,"N#Cc1cnc(Nc2cn(-c3ccc(N4CCN(CCF)CC4)cc3)cn2)cn1 [Example 183, 5-((1-(4-(4-(2-Fluoroethyl)piperazin-1-yl)phenyl)-1H-imidazol-4-yl)amino)pyrazine-2-carbonitrile]",–,–,–,–,–,–,–,–,–
19 ×10⁻⁶ cm/s,–,16,–,12,"COc1cc(C2(F)CCN(C)CC2)ccc1-c1cc(Nc2cnc(C#N)cn2)n[nH]1 [Comparator Ex. 4, 5-((5-(4-(4-Fluoro-1-methylpiperidin-4-yl)-2-methoxyphenyl)-1H-pyrazol-3-yl)amino)pyrazine-2-carbonitrile, reference compound]",59 nM,–,35 nM,329 nM,–,–,58 nM,–,–
